The source of these data is PMC8348200, “Selective Antifungal Activity and Fungal Biofilm Inhibition of Tryptophan Center Symmetrical Short Peptide” (International Journal of Molecular Sciences, 2021).

Converted amounts (≈) assume the structure as drawn. Like-named read-outs stand apart in the source and are kept apart here.

Assay in all cases: microbe, parasite or virus in culture
The test system of one test is S. aureus 25923. It is filed as cell-based, Staphylococcus aureus. To be noted: MHB, 37 °C 24 h, peptides 0.5-128 μM, lowest concentration inhibiting 95% of growth, three independent experiments, read-out: MICs, S. aureus 25923. The procedure:
(§1) The peptide antimicrobial activity was determined according to the Clinical and Laboratory Standards Institute method, with modifications. Bacteria concentration was measured by ultraviolet spectrophotometer, and fungi concentration was confirmed by McMillan’s turbidimetric method, which compared the fungi solution with the standard McFarland tube in front of the horizontal line on the paper with the naked eye. Because the light has different refract in different liquids. The standard solution is composed of sulfuric acid and barium chloride, which is equivalent to 1*10^8 CFU fungi. After cultivation, the growth of fungi and bacteria was measured by TECAN automatic enzyme label instrument. Briefly, bacterial cells were cultured in MHB until logarithmic phase, yeast colonies cultured in Yeast Peptone Dextrose Agar (YPDA) were picked and diluted in RPMI 1640 growth medium buffered with morpholine propane sulfonic acid (MOPS), and then 50 μL of bacterial or fungi cell solution (0.5–1 × 10^4 CFU/mL) was added to each well of sterile 96-well plates. Each well contained 50 μL of AMPs dissolved in BSA; the final concentrations of the peptides ranged from 0.5 to 128 μM. The lowest concentration of peptide with no microbial growth being observed were measured after incubation at 37 °C for 24 h for bacteria or at 28 °C for 48 h for fungi. Broth with microbial cells and un-inoculated broth were used as positive control and negative controls, respectively.

The next test relates to L. rhamnosus 1.0385. It is filed as cell-based, Lactobacillus rhamnosus. To be noted: 37 °C 24 h, peptides 0.5-128 μM, lowest concentration inhibiting 95% of growth, three independent experiments, read-out: MICs, L. rhamnosus 1.0385. The procedure:
as §1

For a further test, the system named is L. rhamnosus 1.0911. It is filed as cell-based, Lactobacillus rhamnosus. To be noted: 37 °C 24 h, peptides 0.5-128 μM, lowest concentration inhibiting 95% of growth, three independent experiments, read-out: MICs, L. rhamnosus 1.0911. As to the method: as §1
Another test deals with S. thermophilus YM-C. It is filed as cell-based, Streptococcus thermophiles. To be noted: 37 °C 24 h, peptides 0.5-128 μM, lowest concentration inhibiting 95% of growth, three independent experiments, read-out: MICs, S. thermophilus YM-C. As to the method: as §1
For test [1], the system named is C. albicans Isolated from Alveolar Fluid. It is filed as cell-based, Candida albicans. The conditions noted are these: RPMI 1640 buffered with MOPS, 28 °C 48 h, 0.5-128 μM, read-out: MICs, C. albicans Isolated from Alveolar Fluid. As to the method:
as §1

In another test the test system is C. albicans SP3902. It is filed as cell-based, Candida albicans. The conditions noted are these: clinical isolate, RPMI 1640 buffered with MOPS, 28 °C 48 h, 0.5-128 μM, read-out: MICs, C. albicans SP3902. As to the method: as §1
In the next test the test system is C. albicans SP3903. It is filed as cell-based, Candida albicans. To be noted: clinical isolate, RPMI 1640 buffered with MOPS, 28 °C 48 h, 0.5-128 μM, read-out: MICs, C. albicans SP3903. As to the method:
as §1

A further test has as its system C. albicans SP3937. It is filed as cell-based, Candida albicans. To be noted: clinical isolate, RPMI 1640 buffered with MOPS, 28 °C 48 h, 0.5-128 μM, read-out: MICs, C. albicans SP3937. As to the method:
as §1

The next test relates to C. albicans cgmcc 2.2086. It is filed as cell-based, Candida albicans. To be noted: RPMI 1640 buffered with MOPS, 28 °C 48 h, 0.5-128 μM, read-out: MICs, C. albicans cgmcc 2.2086. As to the method:
as §1

Test [2] relates to Fluconazole-resistant C. albicans 56214. To be noted: for MIC: Candida albicans, 48 h, read-out: MICs, C. albicans 56214. The procedure:
as §1, with “Bacteria concentration was measured by ultraviolet spectrophotometer, and fungi concentration was confirmed by McMillan’s turbidimetric method, which compared the fungi solution with the standard McFarland tube in front of the horizontal line on the paper with the naked eye.” left out, “The lowest concentration of peptide with no microbial growth being observed were measured after incubation at 37 °C for 24 h for bacteria or at 28 °C for 48 h for fungi.” left out

The test system of the next test is C.albicans cgmcc 2.2086. It is filed as cell-based, Candida albicans. To be noted: C.albicans cgmcc 2.2086. As to the method:
as §1, with “The lowest concentration of peptide with no microbial growth being observed were measured after incubation at 37 °C for 24 h for bacteria or at 28 °C for 48 h for fungi.” left out
The salt and acid sensitivities of the peptides were measured using with modified method to test MIC values; tested peptides were incubated in the presence of different final concentrations of physiological salts. The subsequent steps were consistent with the MIC determination protocol.

Where [3] appears, read: Lacticaseibacillus rhamnosus, 1.0385.
Where [4] appears, read: Lacticaseibacillus rhamnosus, 1.0911.
The mark [5] stands for this setting: Candida albicans, CGMCC2, no added salt, read-out: MIC, Control.
Where [6] appears, read: Candida albicans, CGMCC2, pH = 6 (acidic conditions), read-out: MIC in acid environment, pH = 6.
The mark [7] stands for this setting: Candida albicans, CGMCC2, physiological concentration of FeCl3, read-out: MIC in the presence of FeCl3.
[8] abbreviates: Candida albicans, CGMCC2, physiological concentration of KCl, read-out: MIC in the presence of KCl.
Setting [9] is: Candida albicans, CGMCC2, physiological concentration of MgCl2, read-out: MIC in the presence of MgCl2.
Where [10] appears, read: Candida albicans, CGMCC2, physiological concentration of NH4Cl, read-out: MIC in the presence of NH4Cl.
[11] abbreviates: Candida albicans, CGMCC2, physiological concentration of NaCl (Na+), read-out: MIC in the presence of NaCl.
Where [12] appears, read: Candida albicans, CGMCC2, physiological concentration of ZnCl2, read-out: MIC in the presence of ZnCl2.

Take `C[C@@H]1[C@H](O)[C@@H](C)/C=C/C=C/C=C/C=C/C=C/C=C/C=C/[C@H](O[C@@H]2O[C@H](C)[C@@H](O)[C@H](N)[C@@H]2O)C[C@@H]2O[C@](O)(C[C@@H](O)C[C@@H](O)[C@H](O)CC[C@@H](O)C[C@@H](O)CC(=O)O[C@H]1C)C[C@H](O)[C@H]2C(=O)O` [Amphotericin B, reference compound]: the MIC is > 128 µM in the test with S. aureus 25923 (Staphylococcus aureus, 25923); > 128 µM in the test with L. rhamnosus 1.0385 (setting [3]); > 128 µM in the test on L. rhamnosus 1.0911 (setting [4]); > 128 µM in the test with S. thermophilus YM-C (Streptococcus thermophilus); 1 µM (≈ 0.924 µg/mL) in [1] (Candida albicans); 0.5 µM (≈ 0.462 µg/mL) with C. albicans SP3902 (Candida albicans, SP3902). Also, the MIC in the test with C. albicans SP3903 (Candida albicans, SP3903) turned out to be 0.5 µM (≈ 0.462 µg/mL); in the test with C. albicans SP3937 (Candida albicans, SP3937), 0.5 µM (≈ 0.462 µg/mL); in the test on C. albicans cgmcc 2.2086 (Candida albicans, CGMCC2), 1 µM (≈ 0.924 µg/mL); in test [2], 1 µM (≈ 0.924 µg/mL); with C.albicans cgmcc 2.2086 (setting [5]), 1 µM; with C.albicans cgmcc 2.2086 (setting [6]), 1 µM (≈ 0.924 µg/mL). The MIC came out at 1 µM in the test on C.albicans cgmcc 2.2086 (setting [7]); 1 µM in the test on C.albicans cgmcc 2.2086 (setting [8]); 1 µM in the test on C.albicans cgmcc 2.2086 (setting [9]); 1 µM with C.albicans cgmcc 2.2086 (setting [10]); 2 µM in the test on C.albicans cgmcc 2.2086 (setting [11]); 1 µM in the test on C.albicans cgmcc 2.2086 (setting [12]).
As for `OC(Cn1cncn1)(Cn1cncn1)c1ccc(F)cc1F` [Fluconazole, reference compound], the MIC with S. aureus 25923 (Staphylococcus aureus, 25923) was > 128 µM; in the test with L. rhamnosus 1.0385 (setting [3]), > 128 µM; in the test on L. rhamnosus 1.0911 (setting [4]), > 128 µM; with S. thermophilus YM-C (Streptococcus thermophilus), > 128 µM; in [1] (Candida albicans) it was 2 µM (≈ 0.613 µg/mL); in the test with C. albicans SP3902 (Candida albicans, SP3902) it was 16 µM (≈ 4.9 µg/mL). Further, the MIC in the test with C. albicans SP3903 (Candida albicans, SP3903) is 32 µM (≈ 9.8 µg/mL); in the test with C. albicans SP3937 (Candida albicans, SP3937) it was 16 µM (≈ 4.9 µg/mL); with C. albicans cgmcc 2.2086 (Candida albicans, CGMCC2), 1 µM (≈ 0.306 µg/mL); in test [2], > 128 µM; with C.albicans cgmcc 2.2086 (setting [5]), 1 µM; with C.albicans cgmcc 2.2086 (setting [6]), 1 µM (≈ 0.306 µg/mL). For the same compound, the MIC stood at 1 µM in the test on C.albicans cgmcc 2.2086 (setting [7]); 1 µM with C.albicans cgmcc 2.2086 (setting [8]); 1 µM in the test on C.albicans cgmcc 2.2086 (setting [9]); 1 µM in the test with C.albicans cgmcc 2.2086 (setting [10]); 2 µM in the test on C.albicans cgmcc 2.2086 (setting [11]); 1 µM in the test on C.albicans cgmcc 2.2086 (setting [12]).
On to `CC[C@H](C)[C@H](NC(=O)CN)C(=O)NCC(=O)N[C@@H](C)C(=O)N[C@H](C(=O)N[C@@H](CC(C)C)C(=O)N[C@@H](CCCCN)C(=O)N[C@H](C(=O)N[C@@H](CC(C)C)C(=O)N[C@H](C(=O)N[C@H](C(=O)NCC(=O)N[C@@H](CC(C)C)C(=O)N1CCC[C@H]1C(=O)N[C@@H](C)C(=O)N[C@@H](CC(C)C)C(=O)N[C@H](C(=O)N[C@@H](CO)C(=O)N[C@@H](Cc1c[nH]c2ccccc12)C(=O)N[C@H](C(=O)N[C@@H](CCCCN)C(=O)N[C@@H](CCCNC(=N)N)C(=O)N[C@@H](CCCCN)C(=O)N[C@@H](CCCNC(=N)N)C(=O)N[C@@H](CCC(N)=O)C(=O)N[C@@H](CCC(N)=O)C(N)=O)[C@@H](C)CC)[C@@H](C)CC)[C@@H](C)O)[C@@H](C)O)C(C)C)C(C)C` [Melittin, reference compound], for which the MIC is 2 µM (≈ 5.69 µg/mL) in the test on S. aureus 25923; >128 µM with L. rhamnosus 1.0385; >128 µM with L. rhamnosus 1.0911; >128 µM in the test with S. thermophilus YM-C; 4 µM (≈ 11.4 µg/mL) in test [1]; 4 µM (≈ 11.4 µg/mL) in the test on C. albicans SP3902. For the same compound, the MIC in the test with C. albicans SP3903 was 2 µM (≈ 5.69 µg/mL); in the test on C. albicans SP3937, 4 µM (≈ 11.4 µg/mL); with C. albicans cgmcc 2.2086 it was 4 µM (≈ 11.4 µg/mL); with C.albicans cgmcc 2.2086 (no added salt, read-out: MIC, Control), 4 µM; in the test with C.albicans cgmcc 2.2086 (pH = 6 (acidic conditions), read-out: MIC in acid environment, pH = 6), 4 µM (≈ 11.4 µg/mL); in the test with C.albicans cgmcc 2.2086 (physiological concentration of FeCl3, read-out: MIC in the presence of FeCl3), 4 µM. Also, the MIC is listed as 4 µM in the test with C.albicans cgmcc 2.2086 (physiological concentration of KCl, read-out: MIC in the presence of KCl); 8 µM in the test on C.albicans cgmcc 2.2086 (physiological concentration of MgCl2, read-out: MIC in the presence of MgCl2); 8 µM in the test with C.albicans cgmcc 2.2086 (physiological concentration of NaCl (Na+), read-out: MIC in the presence of NaCl); 4 µM in the test with C.albicans cgmcc 2.2086 (physiological concentration of ZnCl2, read-out: MIC in the presence of ZnCl2). Besides, the “MICs, C. albicans 56214” value in [2] (fluconazole-resistant strain, RPMI 1640 buffered with MOPS, 28 °C 48 h, 0.5-128 μM) came out at 2 µM.
